Test results: patent US20060057614A1 (priority 2004, published 2006)

Key:
[1] = biological target: muscle α1β1γδ nicotinic acetylcholine receptor (expressed in Xenopus oocytes); assay: cell-based or functional assay
α1β1γδ nAChR = α1β1γδ nAChR (Homo sapiens, UniProt P02708+P07510+Q07001); settings: cited from earlier work
α4β2 nAChR = α4β2 nAChR (Homo sapiens, UniProt P17787+P43681); settings: cited from earlier work
α7nAChR = α7nAChR (Homo sapiens, UniProt P36544); settings: cited from earlier work
Sequence of α7nAChR (P36544 23-502 limits assumed): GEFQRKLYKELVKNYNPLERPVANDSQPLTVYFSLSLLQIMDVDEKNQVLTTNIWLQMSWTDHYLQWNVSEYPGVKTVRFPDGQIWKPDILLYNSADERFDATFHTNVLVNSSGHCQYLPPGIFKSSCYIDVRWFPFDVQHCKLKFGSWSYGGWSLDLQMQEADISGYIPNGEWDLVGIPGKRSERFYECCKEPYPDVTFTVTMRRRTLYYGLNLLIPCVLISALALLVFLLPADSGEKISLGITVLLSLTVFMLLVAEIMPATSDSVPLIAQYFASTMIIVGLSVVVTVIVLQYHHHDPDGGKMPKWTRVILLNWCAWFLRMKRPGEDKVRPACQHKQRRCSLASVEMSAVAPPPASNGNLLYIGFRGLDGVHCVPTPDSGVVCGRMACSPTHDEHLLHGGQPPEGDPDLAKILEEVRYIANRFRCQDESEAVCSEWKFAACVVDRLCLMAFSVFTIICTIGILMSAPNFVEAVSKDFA

α3β2 nAChR = α3β2 nAChR (Homo sapiens, UniProt P17787+P32297); settings: cited from earlier work
Sequence of α3β2 nAChR (P32297 32-505 limits assumed): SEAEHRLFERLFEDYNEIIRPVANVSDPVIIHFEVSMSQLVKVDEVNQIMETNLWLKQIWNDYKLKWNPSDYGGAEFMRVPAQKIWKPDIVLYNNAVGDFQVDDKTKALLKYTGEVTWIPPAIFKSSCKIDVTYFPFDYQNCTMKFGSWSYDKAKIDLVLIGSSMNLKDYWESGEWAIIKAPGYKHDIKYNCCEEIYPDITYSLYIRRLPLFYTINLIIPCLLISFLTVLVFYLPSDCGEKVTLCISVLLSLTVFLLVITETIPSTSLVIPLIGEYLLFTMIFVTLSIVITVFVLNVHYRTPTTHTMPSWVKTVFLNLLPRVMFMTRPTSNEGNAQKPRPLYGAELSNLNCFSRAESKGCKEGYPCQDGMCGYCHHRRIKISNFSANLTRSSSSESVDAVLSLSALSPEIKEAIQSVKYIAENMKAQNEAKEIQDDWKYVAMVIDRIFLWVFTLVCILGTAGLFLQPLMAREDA
Sequence of α3β2 nAChR (P17787 26-502 limits assumed): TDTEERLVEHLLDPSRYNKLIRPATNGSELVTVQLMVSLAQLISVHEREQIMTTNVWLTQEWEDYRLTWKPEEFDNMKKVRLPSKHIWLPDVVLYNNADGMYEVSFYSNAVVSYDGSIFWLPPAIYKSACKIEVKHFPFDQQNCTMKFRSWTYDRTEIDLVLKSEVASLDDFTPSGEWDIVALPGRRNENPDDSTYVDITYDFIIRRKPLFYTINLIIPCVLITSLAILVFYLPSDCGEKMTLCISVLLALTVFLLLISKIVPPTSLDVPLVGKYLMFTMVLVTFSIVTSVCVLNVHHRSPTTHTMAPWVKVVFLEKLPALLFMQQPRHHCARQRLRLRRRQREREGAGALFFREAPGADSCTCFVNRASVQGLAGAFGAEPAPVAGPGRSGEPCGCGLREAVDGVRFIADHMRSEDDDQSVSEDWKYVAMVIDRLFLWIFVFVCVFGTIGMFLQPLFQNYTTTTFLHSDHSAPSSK

[2] = biological target: T1, zebrafish acetylcholinesterase (synaptic, in muscle) (zebrafish, UniProt Q9DDE3 24-634)
T1 construct: whole, on cells; also called synaptic acetylcholinesterase

Sequence of α1β1γδ nAChR (P11230 24-501): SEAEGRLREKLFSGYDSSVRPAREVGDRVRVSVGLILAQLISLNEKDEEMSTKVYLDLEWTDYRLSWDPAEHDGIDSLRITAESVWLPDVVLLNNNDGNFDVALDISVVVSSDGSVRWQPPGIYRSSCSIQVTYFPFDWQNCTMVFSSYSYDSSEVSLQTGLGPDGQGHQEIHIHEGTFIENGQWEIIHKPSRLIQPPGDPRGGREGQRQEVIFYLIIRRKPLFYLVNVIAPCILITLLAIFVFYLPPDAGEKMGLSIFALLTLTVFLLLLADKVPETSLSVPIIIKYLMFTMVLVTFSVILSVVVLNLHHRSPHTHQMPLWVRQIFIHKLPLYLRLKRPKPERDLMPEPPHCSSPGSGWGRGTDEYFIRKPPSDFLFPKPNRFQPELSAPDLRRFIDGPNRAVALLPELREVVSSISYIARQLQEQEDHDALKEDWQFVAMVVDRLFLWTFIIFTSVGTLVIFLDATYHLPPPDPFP
Sequence of α1β1γδ nAChR (P02708 21-457): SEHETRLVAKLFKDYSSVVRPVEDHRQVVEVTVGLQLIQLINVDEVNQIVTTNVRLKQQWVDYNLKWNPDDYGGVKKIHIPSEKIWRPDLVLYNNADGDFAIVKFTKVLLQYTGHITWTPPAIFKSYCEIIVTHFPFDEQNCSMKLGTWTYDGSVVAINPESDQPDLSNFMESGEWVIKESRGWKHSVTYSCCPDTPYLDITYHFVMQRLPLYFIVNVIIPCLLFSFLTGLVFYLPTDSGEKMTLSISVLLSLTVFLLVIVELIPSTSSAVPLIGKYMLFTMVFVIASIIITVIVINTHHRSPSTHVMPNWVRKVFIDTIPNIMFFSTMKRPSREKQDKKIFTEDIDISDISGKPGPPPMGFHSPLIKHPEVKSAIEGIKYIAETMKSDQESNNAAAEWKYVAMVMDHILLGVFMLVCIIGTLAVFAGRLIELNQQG
Sequence of α1β1γδ nAChR (Q07001 22-517): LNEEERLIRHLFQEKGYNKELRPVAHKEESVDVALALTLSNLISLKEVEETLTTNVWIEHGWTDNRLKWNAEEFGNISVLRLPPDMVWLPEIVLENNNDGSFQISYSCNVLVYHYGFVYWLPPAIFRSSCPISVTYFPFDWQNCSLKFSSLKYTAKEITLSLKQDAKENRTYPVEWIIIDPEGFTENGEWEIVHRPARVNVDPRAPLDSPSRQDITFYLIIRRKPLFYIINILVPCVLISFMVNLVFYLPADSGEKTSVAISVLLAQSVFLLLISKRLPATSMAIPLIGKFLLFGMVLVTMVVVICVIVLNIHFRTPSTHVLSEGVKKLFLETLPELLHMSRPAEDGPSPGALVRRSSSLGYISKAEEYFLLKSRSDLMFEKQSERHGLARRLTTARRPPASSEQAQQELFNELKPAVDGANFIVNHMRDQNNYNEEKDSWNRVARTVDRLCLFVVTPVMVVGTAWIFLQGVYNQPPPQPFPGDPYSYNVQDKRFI
Sequence of α1β1γδ nAChR (P07510 23-517): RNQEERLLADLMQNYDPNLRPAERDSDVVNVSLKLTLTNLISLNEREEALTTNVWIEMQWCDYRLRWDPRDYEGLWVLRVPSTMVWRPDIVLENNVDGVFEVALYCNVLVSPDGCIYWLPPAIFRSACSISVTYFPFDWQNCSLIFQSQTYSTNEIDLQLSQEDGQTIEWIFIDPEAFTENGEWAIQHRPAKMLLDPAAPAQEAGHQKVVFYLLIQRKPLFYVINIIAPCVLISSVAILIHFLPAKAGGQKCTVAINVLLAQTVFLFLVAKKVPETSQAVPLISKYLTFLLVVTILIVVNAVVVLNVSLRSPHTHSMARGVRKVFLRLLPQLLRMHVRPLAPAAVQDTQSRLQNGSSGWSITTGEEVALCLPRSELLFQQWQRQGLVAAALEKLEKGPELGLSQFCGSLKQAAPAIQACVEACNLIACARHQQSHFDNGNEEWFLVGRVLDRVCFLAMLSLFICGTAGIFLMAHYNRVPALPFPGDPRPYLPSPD
Sequence of α4β2 nAChR (P43681 29-627): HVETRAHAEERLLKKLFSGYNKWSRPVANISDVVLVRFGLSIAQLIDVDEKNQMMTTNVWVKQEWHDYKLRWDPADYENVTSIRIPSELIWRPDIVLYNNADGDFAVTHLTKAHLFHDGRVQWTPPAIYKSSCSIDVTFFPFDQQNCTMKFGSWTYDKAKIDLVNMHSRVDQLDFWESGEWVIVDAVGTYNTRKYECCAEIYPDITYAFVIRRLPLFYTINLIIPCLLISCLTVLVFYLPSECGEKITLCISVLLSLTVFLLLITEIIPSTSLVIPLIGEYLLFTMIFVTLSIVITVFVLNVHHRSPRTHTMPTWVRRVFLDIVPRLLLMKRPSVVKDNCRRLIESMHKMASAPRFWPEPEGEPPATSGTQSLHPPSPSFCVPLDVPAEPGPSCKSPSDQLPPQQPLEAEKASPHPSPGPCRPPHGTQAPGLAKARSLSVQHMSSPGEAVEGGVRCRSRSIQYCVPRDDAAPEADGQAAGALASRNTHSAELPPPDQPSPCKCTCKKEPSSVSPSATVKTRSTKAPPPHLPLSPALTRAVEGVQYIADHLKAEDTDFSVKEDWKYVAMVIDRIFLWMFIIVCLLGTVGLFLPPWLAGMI
Sequence of α4β2 nAChR (P17787 26-502): as the sequence (P17787 26-502 limits assumed) above

Molecule: tethered α-bungarotoxin
- average peak ACh current, Xenopus oocytes (receptor alone: 8.46 +/-3.7 µA) [1]: 0 µA

Molecule: α-bungarotoxin
- Affinity (α1β1γδ nAChR): 0.4 nM
- Affinity (α4β2 nAChR): 100 µM
- Affinity (α7nAChR): 0.95 nM

Molecule: α-conotoxin MII
- Affinity (α3β2 nAChR): 0.5 nM

Molecule: κ-bungartotoxin
- Affinity (α1β1γδ nAChR): 1000 nM
- Affinity (α4β2 nAChR): >0.1 µM
- Affinity (α7nAChR): 1 to 12 nM

B1: Alexa 647 conjugated Fasciculin 2 (ligand)
chain: TMCYSHTTTSRAILTNCGENSCYRKSRRHPPKMVLGRGCGCPPGDDNLEVKCCTSPDKCNY
notes: Bought reagent; also called FasII
- binding result [2]: binds
